In patent US20020132276A1, “FACS method for detecton of GPIIb/IIIa inhibitor dependent activators in plasma samples” (priority 1999, published 2002):

Experiments:
[1] = test system: platelet CD62; test: DDPASFCA in alternative microtiter plates (Costar Serocluster #3897 versus #3898); format: cell-based, human; conditions: with minus without Compound A 200 nM
Description: ADP and DPC38 were used as sources of DDPASs. 2 μL of citrated PRP (DPC3) was added to either Costar Serocluster® 96 well V-bottom microtiterplates (#3897) or #3898 microtiter plates (Costar Serocluster®) (rated as “hydrophilic” in nature by the manufacturer). Platelets were then treated with and without Compound A (200 nM) with the indicated concentrations of ADP. Similarly, DDPAS positive PRP (DPC38) was added to wells of both types of plates and treated with and without Compound A (200 nM). Reactions were incubated without shaking for 120 minutes. After this time, 20 μL of phycoerythrin conjugated anti-CD62 (anti-CD62-PE, Bectin Dickinson) was added. After 30 minutes the samples were diluted with 150 μL flow buffer and bound anti-CD62-PE measured as described in Example 1.
Delta SC=Delta Fluorescence for Costar Serocluster microtiter plates
Delta H=Delta Fluorescence for H3898 microtiter plates

[2] = test system: platelet CD62; test: Detection of ADP as a GPIIb/IIIa DDPAS by DDPASFCA; format: cell-based, human; conditions: for + compound Med F12: + Compound A 1 μM; for no compound Med F12: no Compound A; for Delta Med F12: with minus without Compound A 1 μM
Description: Adenosine diphosphate (ADP) was evaluated as a possible DDPAS as follows: Compound A (final concentration 1 μM) or vehicle was added to 25 μL of freshly prepared PRP in wells of a 96-well microtiter plate. Another set of wells received vehicle. After 10 minutes, 2.5 μL of from each well was transferred to microtiter wells containing only 20 μL of anti-CD62-PE. After incubation for 30 minutes, samples were analyzed by flow cytometry as in Example 1.

[3] = platelet donor DPC3, ADP 100 uM

`Nc1ncnc2c1ncn2[C@@H]1O[C@H](COP(=O)(O)OP(=O)(O)O)[C@@H](O)[C@H]1O` [ADP, Adenosine diphosphate] was tested, and the “Delta CS (Delta Fluorescence for Costar Serocluster microtiter plates)” value ([1]; platelet donor DPC3, ADP 10 uM) was 89, the “Delta H (Delta Fluorescence for H3898 microtiter plates)” value ([1]; platelet donor DPC3, ADP 10 uM) was 157 and the “Delta CS (Delta Fluorescence for Costar Serocluster microtiter plates)” value [1, 3] was 82. For the same molecule, the “Delta H (Delta Fluorescence for H3898 microtiter plates)” value [1, 3] was 168, the “+ compound Med F12” value ([2]; ADP 0.4 μM final) was 20 and the “no compound Med F12” value ([2]; ADP 0.4 μM final) was 14. The “Delta Med F12” value ([2]; ADP 0.4 μM final) was 5, the “+ compound Med F12” value ([2]; ADP 2 μM final) was 89 and the “no compound Med F12” value ([2]; ADP 2 μM final) was 48. The “Delta Med F12” value ([2]; ADP 2 μM final) was 40, the “+ compound Med F12” value ([2]; ADP 10 μM final) was 208 and the “no compound Med F12” value ([2]; ADP 10 μM final, PRP, 10 minutes) was 126. For the same molecule, the “Delta Med F12” value ([2]; ADP 10 μM final) was 82.
